Article PMC7762786, “The discovery of novel antitrypanosomal 4-phenyl-6-(pyridin-3-yl)pyrimidines” (European Journal of Medicinal Chemistry, 2021)

Columns and labels:
rhodesain [1] = target: T1, rhodesain (Trypanosoma brucei rhodesiense, UniProt Q95PM0); assay: STD and WaterLOGSY NMR protein-ligand interaction; assay type: binding; details: rhodesain 50 μM, compound 5 mM, 25 °C; corroborated by WaterLOGSY
Text: In order to support the outcome observed from docking studies, protein-ligand interactions were probed via Saturation Transfer Difference (STD) and WaterLOGSY experiments. STD is an NMR technique where the protein is selectively saturated and, if the ligand is binding to the protein in the timescale of the experiment, the saturation gets transferred to the ligand via intermolecular NOE and only then it is possible to observe an NMR signal. WaterLOGSY relies on the detection of the intermolecular NOE between water (which is selectively irradiated) and the ligand. The sign of the NOE depends on the rotational correlation time of the molecule, thus large molecules such as proteins, have an opposite NOE sign than small molecules such as the pyrimidines investigated. If the pyrimidines bind to the protein, their rotational correlation time changes and the sign of the signals in the WaterLOGSY experiment will be opposite than in the absence of a binding protein. […] The WaterLOGSY results, which as expected is generally a more sensitive technique, further corroborate our findings. […]
All NMR studies were performed at 25 °C on a JEOL ECZ-R 600 MHz spectrometer equipped with a ROYAL room temperature probe. […] The spectra were processed and analysed using JEOL Delta software. […]

rhodesain [2] = target: T1, rhodesain; assay: In vitro rhodesain enzyme assay (Cbz-Phe-Arg-AMC substrate); assay type: biochemical; details: compound at 50 μM; Cbz-Phe-Arg-AMC substrate 10, 5 and 1.25 μM; read-out: inhibition of rhodesain enzymatic activity
Experimental: Enzyme assays with rhodesain were performed as described previously [[36], [37], [38]]. The assay buffer consisted of 50 mM sodium acetate (pH 5.5), 5 mM EDTA, 200 mM NaCl and 0.005% Brij35. The enzyme buffer consisted of 50 mM sodium acetate (pH 5.5), 5 mM EDTA, 200 mM NaCl and 2 mM DTT. The substrate Cbz-Phe-Arg-AMC (Bachem, purchased as HCl salt) was diluted from a 1 mM stock solution to reach concentrations of 10, 5 and 1.25 μM. […] Inhibition against rhodesain was measured using Cbz-Phe-Arg-AMC as the substrate, which releases AMC (7-amino-4-methylcoumarin) after amide bond cleavage by the enzyme. Proteolytic activity of the enzyme was monitored spectrophotometrically by the increase of fluorescence intensity by release of AMC (emission at 460 nm) upon hydrolysis.

CYP3A4 = target: T2, CYP3A4 (Homo sapiens, UniProt P08684); assay: Cytochrome P450 inhibition assay (P450-Glo); assay type: in vitro ADME; details: 10 μM, result in words
T2 construct: purchased Corning; host or cells: baculovirus infected insect cells (BTI-TN-5B1-4)
Experimental: (§1) Cytotoxicity was also determined against 786-O and A549 cells.
(§2) Experiments for determining pre-clinical in vitro ADME-Tox activities were performed as described by Moraes et al. and also described in the following sections 4.3.2.1 to 4.3.2.4.
(§3) The luminescence based P450-Glo™ (Promega Corp.) assay was used in 384-well assay format.
(§4) The cytochrome P450 (CYP) panel included microsomal preparations of cytochromes P450 1A2, 2C9, 2C19, 2D6, and 3A4 (Corning) from baculovirus infected insect cells (BTI-TN-5B1−4) which express cytochromes P450 and cytochrome c reductase (and cytochrome b5 for 3A4). Compounds were added (100 nL/well in 1% DMSO v/v) using the Echo 550® Liquid Handler followed by addition of 5 μL/well of CYP450/substrate mixture. Following incubation for 30 min at 37 °C, the reaction was initiated by the addition of 5 μL/well of the NADPH regeneration mixture. By the end of a further 30 min incubation (37 °C), the CYP450 reaction was stopped and the luciferase reaction was initiated by the addition of 10 μL/well of the luciferin detection reagent, followed by an additional 30 min of incubation at 37 °C. The luminescence signal was detected using an Infinite® M1000 PRO plate reader. […] The raw data were normalised relative to the positive and negative controls yielding the % inhibition for each compound.

CYP2C9 = target: T3, CYP2C9 (Homo sapiens, UniProt P11712); assay: Cytochrome P450 inhibition assay (P450-Glo); assay type: in vitro ADME; details: 10 μM, result in words
T3 construct: purchased Corning; host or cells: baculovirus infected insect cells (BTI-TN-5B1-4)
Experimental: as §1, §2, §3, §4

CYP2D6 = target: T4, CYP2D6 (Homo sapiens, UniProt P10635); assay: Cytochrome P450 inhibition assay (P450-Glo); assay type: in vitro ADME; details: 10 μM, result in words
T4 construct: purchased Corning; host or cells: baculovirus infected insect cells (BTI-TN-5B1-4)
Experimental: as §1, §2, §3, §4

CYP2C19 = target: T5, CYP2C19 (Homo sapiens, UniProt P33261); assay: Cytochrome P450 inhibition assay (P450-Glo); assay type: in vitro ADME; details: 10 μM, result in words
T5 construct: purchased Corning; host or cells: baculovirus infected insect cells (BTI-TN-5B1-4)
Experimental: as §1, §2, §3, §4

CYP1A2 = target: T6, CYP1A2 (Homo sapiens, UniProt P05177); assay: Cytochrome P450 inhibition assay (P450-Glo); assay type: in vitro ADME; details: 10 μM, result in words
T6 construct: purchased Corning; host or cells: baculovirus infected insect cells (BTI-TN-5B1-4)
T6 sequence (P05177 2-516 limits assumed): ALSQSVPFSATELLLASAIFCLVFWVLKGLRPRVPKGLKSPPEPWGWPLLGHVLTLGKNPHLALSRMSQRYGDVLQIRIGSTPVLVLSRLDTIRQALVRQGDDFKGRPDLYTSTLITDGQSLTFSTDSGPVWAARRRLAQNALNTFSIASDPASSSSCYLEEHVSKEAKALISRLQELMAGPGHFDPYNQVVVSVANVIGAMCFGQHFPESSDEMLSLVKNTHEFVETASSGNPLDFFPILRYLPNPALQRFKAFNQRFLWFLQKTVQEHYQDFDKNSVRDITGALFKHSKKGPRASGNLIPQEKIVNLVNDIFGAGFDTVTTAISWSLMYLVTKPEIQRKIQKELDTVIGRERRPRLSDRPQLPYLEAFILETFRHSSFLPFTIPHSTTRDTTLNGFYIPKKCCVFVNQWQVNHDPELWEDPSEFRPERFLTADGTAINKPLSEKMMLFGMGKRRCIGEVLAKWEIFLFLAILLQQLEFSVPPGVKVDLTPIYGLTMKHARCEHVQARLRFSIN
Experimental: as §1, §2, §3, §4

T1 sequence (Q95PM0 entry or part of it): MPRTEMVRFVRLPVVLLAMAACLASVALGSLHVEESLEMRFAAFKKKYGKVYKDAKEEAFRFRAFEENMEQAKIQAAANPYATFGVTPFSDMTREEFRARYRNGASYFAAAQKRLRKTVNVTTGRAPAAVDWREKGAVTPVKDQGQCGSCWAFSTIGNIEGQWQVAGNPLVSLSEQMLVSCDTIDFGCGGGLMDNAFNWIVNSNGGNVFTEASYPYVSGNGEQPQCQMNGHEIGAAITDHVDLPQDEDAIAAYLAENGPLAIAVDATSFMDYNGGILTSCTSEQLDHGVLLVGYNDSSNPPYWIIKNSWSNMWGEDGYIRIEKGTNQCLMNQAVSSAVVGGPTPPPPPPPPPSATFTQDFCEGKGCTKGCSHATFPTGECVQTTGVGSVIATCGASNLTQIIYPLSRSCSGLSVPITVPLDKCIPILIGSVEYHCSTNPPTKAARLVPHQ
T2 sequence (P08684 2-503 limits assumed): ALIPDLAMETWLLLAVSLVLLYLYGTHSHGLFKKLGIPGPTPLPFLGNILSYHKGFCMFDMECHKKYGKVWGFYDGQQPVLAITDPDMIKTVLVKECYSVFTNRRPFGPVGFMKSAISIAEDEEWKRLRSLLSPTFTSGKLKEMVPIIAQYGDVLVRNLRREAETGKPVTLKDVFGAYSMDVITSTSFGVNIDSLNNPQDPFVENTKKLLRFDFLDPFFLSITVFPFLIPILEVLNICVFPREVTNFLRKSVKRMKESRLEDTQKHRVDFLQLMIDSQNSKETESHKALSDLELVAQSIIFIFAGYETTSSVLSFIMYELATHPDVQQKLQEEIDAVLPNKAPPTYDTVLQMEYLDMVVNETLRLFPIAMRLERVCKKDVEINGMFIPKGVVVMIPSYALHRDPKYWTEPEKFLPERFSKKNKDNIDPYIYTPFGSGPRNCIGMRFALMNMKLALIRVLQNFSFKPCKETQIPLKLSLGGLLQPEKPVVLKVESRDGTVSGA
T3 sequence (P11712 whole entry): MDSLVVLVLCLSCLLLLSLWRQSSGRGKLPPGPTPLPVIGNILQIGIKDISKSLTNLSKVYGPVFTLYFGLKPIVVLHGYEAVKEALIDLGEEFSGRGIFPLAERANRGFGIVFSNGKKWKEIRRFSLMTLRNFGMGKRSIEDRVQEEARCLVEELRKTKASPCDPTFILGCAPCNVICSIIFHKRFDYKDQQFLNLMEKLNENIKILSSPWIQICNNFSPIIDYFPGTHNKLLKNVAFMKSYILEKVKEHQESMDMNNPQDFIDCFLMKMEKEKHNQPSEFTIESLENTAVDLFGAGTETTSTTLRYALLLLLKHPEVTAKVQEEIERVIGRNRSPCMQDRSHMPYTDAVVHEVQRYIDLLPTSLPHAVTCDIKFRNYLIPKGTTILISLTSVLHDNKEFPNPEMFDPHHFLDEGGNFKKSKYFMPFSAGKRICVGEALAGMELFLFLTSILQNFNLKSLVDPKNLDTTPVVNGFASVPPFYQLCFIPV
T4 sequence (P10635 whole entry): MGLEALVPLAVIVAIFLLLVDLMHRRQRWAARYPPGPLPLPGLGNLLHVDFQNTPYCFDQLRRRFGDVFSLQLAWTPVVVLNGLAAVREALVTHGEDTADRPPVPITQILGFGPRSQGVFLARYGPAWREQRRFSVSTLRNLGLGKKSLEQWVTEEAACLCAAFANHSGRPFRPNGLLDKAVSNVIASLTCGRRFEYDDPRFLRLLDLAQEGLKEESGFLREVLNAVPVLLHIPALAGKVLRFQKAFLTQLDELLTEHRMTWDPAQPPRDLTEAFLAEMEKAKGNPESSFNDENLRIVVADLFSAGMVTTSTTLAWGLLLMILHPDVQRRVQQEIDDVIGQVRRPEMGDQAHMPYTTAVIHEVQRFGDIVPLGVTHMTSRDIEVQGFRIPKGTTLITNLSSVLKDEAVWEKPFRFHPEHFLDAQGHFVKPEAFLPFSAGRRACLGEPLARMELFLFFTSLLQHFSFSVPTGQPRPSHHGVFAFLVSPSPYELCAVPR
T5 sequence (P33261 whole entry): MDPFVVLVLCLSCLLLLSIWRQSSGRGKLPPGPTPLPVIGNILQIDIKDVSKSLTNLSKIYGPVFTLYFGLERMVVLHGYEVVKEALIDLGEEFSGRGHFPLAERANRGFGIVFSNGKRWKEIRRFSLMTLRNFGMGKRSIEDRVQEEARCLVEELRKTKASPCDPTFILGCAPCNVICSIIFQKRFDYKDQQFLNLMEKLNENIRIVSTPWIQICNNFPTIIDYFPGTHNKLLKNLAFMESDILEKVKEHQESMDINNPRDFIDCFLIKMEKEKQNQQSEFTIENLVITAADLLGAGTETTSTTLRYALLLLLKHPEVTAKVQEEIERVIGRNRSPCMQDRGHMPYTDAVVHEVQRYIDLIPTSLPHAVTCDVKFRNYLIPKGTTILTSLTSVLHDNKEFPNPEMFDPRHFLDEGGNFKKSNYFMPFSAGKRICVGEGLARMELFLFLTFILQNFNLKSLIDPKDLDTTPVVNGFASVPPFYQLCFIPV

With `COc1ccccc1-c1cc(-c2cccnc2)nc(N)n1` [Compound 13, 4-(2-Methoxyphenyl)-6-(pyridin-3-yl)pyrimidin-2-amine] as the compound, how does the “binding to rhodesain by STD NMR” value (rhodesain [1]) read?
The value was “confirming binding to rhodesain”.

And the inhibition at 50 µM (rhodesain [2])?
Its inhibition at 50 µM is no more than 15%.

What about the CYP3A4 inhibition (CYP3A4) of the same compound?
Its CYP3A4 inhibition is “favourable results”.

What about the CYP2C9 inhibition (CYP2C9) of the same compound?
Its CYP2C9 inhibition is “some inhibition”.

What about the CYP2D6 inhibition (CYP2D6) of the same compound?
Its CYP2D6 inhibition is “favourable results”.

What about the CYP2C19 inhibition (CYP2C19) of the same compound?
The CYP2C19 inhibition was “some inhibition”.

And the CYP1A2 inhibition (CYP1A2)?
Its CYP1A2 inhibition is “inhibitory activity”.
